Values of other authors in patent US20230133919A1, “COMPOSITIONS AND RELATED METHODS FOR REDUCING VAPOR EFFECT OF VOLATILE HERBICIDES” (BOARD OF TRUSTEES OF MICHIGAN STATE UNIVERSITY, priority 2020, published 2023).

Conditions: approximate

Row | SMILES | vapor pressure
1 | CCCCC(CC)COC(=O)COc1ccc(Cl)cc1Cl (stereo not shown) [2,4-D (2-ethylhexyl ester)] | ~4.8×10^−4 Pa
2 | CCCCOCCOC(=O)COc1ccc(Cl)cc1Cl [2,4-D (butoxyethyl ester)] | ~3.2×10^−4 Pa
3 | CNC.O=C(O)COc1ccc(Cl)cc1Cl [2,4-D (dimethylamine salt)] | ~1.3×10^−5 Pa
4 | CC(C)OC(=O)COc1ccc(Cl)cc1Cl [2,4-D (isopropyl ester)] | ~1.9×10^1 Pa
